Holding throughout (type): cell-based
The subject of experiment [1] is Mycobacterium tuberculosis (Mtb-GFP; H37Rv pMSP12::GFP). The experiment in a line: microbe, parasite or virus in culture. Conditions: for MIC: Mycobacterium tuberculosis, H37RV, 168 h, pH 6.8, read-out: Mtb Glu MITC95.
Experiment [2] shares this test system. Nature of the experiment: microbe, parasite or virus in culture. Conditions: for MIC: Mycobacterium tuberculosis, H37RV, 168 h, pH 6.8, read-out: Mtb Cho MITC95.
In experiment [3] the test system is mitochondrial protein synthesis in HepG2 cells. Nature of the experiment: Mitochondrial protein synthesis assay. Conditions: 4 days, COX-1 relative to SDH-A / Janus Green, In Cell ELISA, read-out: MPS IC50. For orientation: In an ELISA, binding on a coated surface is turned into a signal by an enzyme label.

In brackets after ≈: the same amount, converted by molar mass. Read-outs that look alike come from different tables or passages of the source. Where only a bound is given, the exact number is not on record here.

This note sets out measurements from US12365656B2, “Oxazolidinone compounds and methods of use thereof as antibacterial agents” (priority 2019, dated 2025).

Broadly, the IC50 is the concentration that inhibits the measured activity by half. Consider `Cc1cc(N2C[C@H](CO)OC2=O)ccc1C1(F)CCS(=O)(=O)CC1` [Example 35, 4-fluoro-4-{4-[(5R)-5-(hydroxymethyl)-2-oxo-1,3-oxazolidin-3-yl]-2-methylphenyl}-1λ^6-thiane-1,1-dione], for which the MIC in experiment [1] stood at 25 µM (≈ 8.94 µg/mL); in experiment [2], 50 µM (≈ 17.9 µg/mL). In addition, the IC50 in experiment [3] (Homo sapiens, 96 h) was greater than 100 µM.
For `O=C1O[C@@H](CO)CN1c1cc(F)c(C2(F)CCS(=O)(=O)CC2)c(F)c1F` [Example 25, 4-fluoro-4-{2,3,6-trifluoro-4-[(5R)-5-(hydroxymethyl)-2-oxo-1,3-oxazolidin-3-yl]phenyl}-1λ^6-thiane-1,1-dione] the same measures were 6.3 µM (≈ 2.5 µg/mL), 6.3 µM (≈ 2.5 µg/mL) and greater than 100 µM.
With `O=C1O[C@@H](CO)CN1c1cc(F)c(C2(F)CCS(=O)(=O)CC2)c(F)c1` [Example 2, (5R)-3-[3,5-difluoro-4-(4-fluoro-1,1-dioxidotetrahydro-2H-thiopyran-4-yl)phenyl]-5-(hydroxymethyl)-1,3-oxazolidin-2-one], the MIC in experiment [1] amounted to 1.9 µM (≈ 0.721 µg/mL); in experiment [2], 2.2 µM (≈ 0.835 µg/mL). In addition, the concentration for half-maximal inhibition (IC50) in experiment [3] (Homo sapiens, 96 h) is greater than 100 µM.
For `CC(=O)N1CCN(c2c(F)cc(N3C[C@H](CO)OC3=O)cc2F)C2CC21` (stereo partly drawn) [Example 18, (5R)-3-[4-(5-acetyl-2,5-diazabicyclo[4.1.0]heptan-2-yl)-3,5-difluorophenyl]-5-(hydroxymethyl)-1,3-oxazolidin-2-one] the same measures were 3.1 µM (≈ 1.14 µg/mL), 3.1 µM (≈ 1.14 µg/mL) and greater than 100 µM.
Take `O=C1O[C@@H](CO)CN1c1cc(F)c(N2CCS(=O)(=O)CC2)c(F)c1` [Example 22, 4-{2,6-difluoro-4-[(5R)-5-(hydroxymethyl)-2-oxo-1,3-oxazolidin-3-yl]phenyl}-1λ^6-thiomorpholine-1,1-dione]: the figures for the MIC in experiment [1] and in experiment [2] were 3.9 µM (≈ 1.41 µg/mL) and 6.3 µM (≈ 2.28 µg/mL), respectively. For the same compound, in experiment [3] (Homo sapiens, 96 h), the IC50 is greater than 100 µM.
On the same counts, the results for `O=C1O[C@@H](CO)CN1c1ccc(-c2ccc(S(=O)(=O)C3COC3)cc2)cc1` [Example 33, (5R)-5-(hydroxymethyl)-3-[4′-(oxetane-3-sulfonyl)[1,1′-biphenyl]-4-yl]-1,3-oxazolidin-2-one] are 3.1 µM (≈ 1.21 µg/mL), 2.3 µM (≈ 0.896 µg/mL) and 9.7 µM.
On the same counts, the results for `O=C1O[C@@H](CO)CN1c1ccc(-c2ccc(S(=O)(=O)N3CCC3)cc2)c(F)c1` [Example 38, (5R)-3-[4′-(azetidine-1-sulfonyl)-2-fluoro[1,1′-biphenyl]-4-yl]-5-(hydroxymethyl)-1,3-oxazolidin-2-one] are 6.3 µM (≈ 2.56 µg/mL), 6.3 µM (≈ 2.56 µg/mL) and greater than 13 µM.
For `O=C1O[C@@H](CO)CN1c1ccc(C2(F)CCS(=O)(=O)CC2)c(F)c1` [Example 24, 4-fluoro-4-[2-fluoro-4-[(5R)-5-(hydroxymethyl)-2-oxo-1,3-oxazolidin-3-yl]phenyl}-1λ^6-thiane-1,1-dione] the same measures were 6.3 µM (≈ 2.28 µg/mL), 6.3 µM (≈ 2.28 µg/mL) and greater than 50 µM.
With `N#CC1(c2c(F)cc(N3C[C@H](CO)OC3=O)cc2F)CCS(=O)(=O)CC1` [Example 16, 4-{2,6-difluoro-4-[(5R)-5-(hydroxymethyl)-2-oxo-1,3-oxazolidin-3-yl]phenyl}-1,1-dioxo-1λ6-thiane-4-carbonitrile], the MIC in experiment [1] and in experiment [2] was 1.6 µM (≈ 0.618 µg/mL) each time. In experiment [3] (Homo sapiens, 96 h), the IC50 is 50 µM.
Regarding `CS(=O)(=O)Cc1ccc(-c2ccc(N3C[C@H](CO)OC3=O)cc2F)cc1` [Example 39], the values for the MIC in experiment [1] and in experiment [2] were 1.6 µM (≈ 0.607 µg/mL) and 1.2 µM (≈ 0.455 µg/mL), respectively. Also, the IC50 in experiment [3] (Homo sapiens, 96 h) came to 1.5 µM.
On the same counts, the results for `O=C1O[C@@H](CO)CN1c1ccc(C2(F)CCS(=O)(=O)CC2)c(C(F)(F)F)c1` [Example 37, 4-fluoro-4-{4-[(5R)-5-(hydroxymethyl)-2-oxo-1,3-oxazolidin-3-yl]-2-(trifluoromethyl)phenyl}-1λ^6-thiane-1,1-dione] are 50 µM (≈ 20.6 µg/mL), 50 µM (≈ 20.6 µg/mL) and greater than 100 µM.
In the case of `O=C1O[C@@H](CO)CN1c1ccc(-c2ccc(S(=O)(=O)C3CCC3)cc2)c(F)c1` [Example 29, (5R)-3-[4′-(cyclobutanesulfonyl)-2-fluoro[1,1′-biphenyl]-4-yl]-5-(hydroxymethyl)-1,3-oxazolidin-2-one], the MIC in experiment [1] and in experiment [2] was 3.1 µM (≈ 1.26 µg/mL) in each case. Besides, the IC50 in experiment [3] (Homo sapiens, 96 h) was greater than 100 µM.
For `O=C1O[C@@H](CO)CN1c1ccc(-c2ccn3ncnc3c2)c(F)c1` [Example 8, (5R)-3-[3-fluoro-4-([1,2,4]triazolo[1,5-a]pyridin-7-yl)phenyl]-5-(hydroxymethyl)-1,3-oxazolidin-2-one], the MIC in experiment [1] was found to be 1.5 µM (≈ 0.492 µg/mL); in experiment [2], 1.8 µM (≈ 0.591 µg/mL). For the same compound, the IC50 in experiment [3] (Homo sapiens, 96 h) is 3.7 µM.
As for “4-{2,6-difluoro-4-[(5R)-5-(hydroxymethyl)-2-oxo-1,3-oxazolidin-3-yl]phenyl}-4-hydroxy-1λ^6-thiane-1,1-dione [Example 34]”, the “Mtb Glu MITC95” value in experiment [1] (glucose carbon source, pH 6.8, 7-day growth, GFP fluorescence, lowest concentration inhibiting 95% of growth) amounted to 25 µM. For the same compound, in experiment [2] (cholesterol carbon source, pH 6.8, 7-day growth, GFP fluorescence, lowest concentration inhibiting 95% of growth), the “Mtb Cho MITC95” value was determined as 25 µM. The IC50 in experiment [3] was greater than 100 µM.
Regarding `CC(=O)NC[C@H]1CN(c2ccc(N3CCOCC3)c(F)c2)C(=O)O1` [linezolid, reference compound], the MIC in experiment [1] was 4.58 µM (≈ 1.55 µg/mL); in experiment [2], 3.14 µM (≈ 1.06 µg/mL). Moreover, the IC50 in experiment [3] (Homo sapiens, 96 h) turned out to be 8 µM.
For `CN1CC(S(=O)(=O)c2ccc(-c3ccc(N4C[C@H](CO)OC4=O)cc3F)cc2)C1` [Example 20, (5R)-3-[2-fluoro-4′-(1-methylazetidine-3-sulfonyl)[1,1′-biphenyl]-4-yl]-5-(hydroxymethyl)-1,3-oxazolidin-2-one] the same measures were 0.39 µM (≈ 0.164 µg/mL), 0.39 µM (≈ 0.164 µg/mL) and 7.4 µM.
For `O=C1O[C@@H](CO)CN1c1cc(F)c(C2(F)CCS(=O)(=O)CC2)c(Cl)c1` [Example 30, 4-{2-chloro-6-fluoro-4-[(5R)-5-(hydroxymethyl)-2-oxo-1,3-oxazolidin-3-yl]phenyl}-4-fluoro-1λ^6-thiane-1,1-dione] the same measures were 6.3 µM (≈ 2.49 µg/mL), 13 µM (≈ 5.15 µg/mL) and greater than 100 µM.
Turning to `CN1CC(C)(S(=O)(=O)c2ccc(-c3ccc(N4C[C@H](CO)OC4=O)cc3F)cc2)C1` [Example 14, (5R)-3-[4'-(1,3-dimethylazetidine-3-sulfonyl)-2-fluoro[1,1′-biphenyl]-4-yl]-5-(hydroxymethyl)-1,3-oxazolidin-2-one], the MIC in experiment [1] and in experiment [2] was 0.78 µM (≈ 0.339 µg/mL) throughout. In addition, the half-inhibitory concentration (IC50) in experiment [3] (Homo sapiens, 96 h) was 23 µM.
With `Cn1cc(-c2ccc(N3C[C@H](CO)OC3=O)cc2F)ccc1=O` [Example 26, 5-{2-fluoro-4-[(5R)-5-(hydroxymethyl)-2-oxo-1,3-oxazolidin-3-yl]phenyl}-1-methylpyridin-2(1H)-one], the MIC in experiment [1] and in experiment [2] was 6.3 µM (≈ 2.01 µg/mL) in each case. In experiment [3] (Homo sapiens, 96 h), the IC50 worked out at 28 µM.
Take `O=C1O[C@@H](CO)CN1c1ccc(C2(F)CCS(=O)(=O)CC2)c(Cl)c1` [Example 31, 4-{2-chloro-4-[(5R)-5-(hydroxymethyl)-2-oxo-1,3-oxazolidin-3-yl]phenyl}-4-fluoro-1λ^6-thiane-1,1-dione]: the MIC in experiment [1] and in experiment [2] was 13 µM (≈ 4.91 µg/mL) in each case. The IC50 in experiment [3] (Homo sapiens, 96 h) was greater than 100 µM.
Regarding `O=C1O[C@@H](CO)CN1c1cc(F)c(C2=CCS(=O)(=O)CC2)c(F)c1` [Example 15, 4-{2,6-difluoro-4-[(5R)-5-(hydroxymethyl)-2-oxo-1,3-oxazolidin-3-yl]phenyl}-3,6-dihydro-1λ6-thiopyran-1,1(2H)-dione], the MIC in experiment [1] and in experiment [2] was 1.6 µM (≈ 0.575 µg/mL) in each case. In addition, in experiment [3] (Homo sapiens, 96 h), the IC50 was greater than 100 µM.
On to `CN1CC(C)(S(=O)(=O)c2ccc(-c3ccc(N4C[C@H](CO)OC4=O)cc3)cc2)C1` [Example 23, (5R)-3-[4'-(1,3-dimethylazetidine-3-sulfonyl)[1,1'-biphenyl]-4-yl]-5-(hydroxymethyl)-1,3-oxazolidin-2-one], for which the MIC in experiment [1] is 1.6 µM (≈ 0.666 µg/mL); in experiment [2], 3.1 µM (≈ 1.29 µg/mL). Further, in experiment [3] (Homo sapiens, 96 h), the IC50 is greater than 100 µM.
Consider `CS(=O)(=O)c1ccc(-c2ccc(N3C[C@H](CO)OC3=O)cc2)cc1` [Example 28, (5R)-5-(hydroxymethyl)-3-[4′-(methanesulfonyl)[1,1′-biphenyl]-4-yl]-1,3-oxazolidin-2-one], for which the MIC in experiment [1] and in experiment [2] was 1.6 µM (≈ 0.556 µg/mL) each time. In experiment [3] (Homo sapiens, 96 h), the IC50 was determined as 32 µM.
On to `CN=S1(=O)CCN(c2c(F)cc(N3C[C@H](CO)OC3=O)cc2F)CC1` [Example 27, 4-{2,6-difluoro-4-[(5R)-5-(hydroxymethyl)-2-oxo-1,3-oxazolidin-3-yl]phenyl}-1-(methylimino)-1λ^6-thiomorpholin-1-one], for which the MIC in experiment [1] and in experiment [2] was 6.3 µM (≈ 2.37 µg/mL) in each case. Besides, in experiment [3] (Homo sapiens, 96 h), the 50% inhibitory concentration (IC50) is greater than 100 µM.
Turning to `CC1(c2c(F)cc(N3C[C@H](CO)OC3=O)cc2F)CCS(=O)(=O)CC1` [Example 41, 4-{2,6-difluoro-4-[(5R)-5-(hydroxymethyl)-2-oxo-1,3-oxazolidin-3-yl]phenyl}-4-methyl-lλ^6-thiane-1,1-dione], the MIC in experiment [1] was 6.3 µM (≈ 2.36 µg/mL); in experiment [2], 9.4 µM (≈ 3.53 µg/mL). The IC50 in experiment [3] (Homo sapiens, 96 h) is greater than 100 µM.
On the same counts, the results for `O=C1O[C@@H](CO)CN1c1ccc(C2(F)CCS(=O)(=O)CC2)cc1` [Example 36, 4-fluoro-4-{4-[(5R)-5-(hydroxymethyl)-2-oxo-1,3-oxazolidin-3-yl]phenyl}-1λ^6-thiane-1,1-dione] are 50 µM (≈ 17.2 µg/mL), 38 µM (≈ 13 µg/mL) and greater than 50 µM.
